One assay deals with T1, spASADH (Streptococcus pneumoniae, UniProt Q8DQ00).
T1 sequence (Q8DQ00 1-358): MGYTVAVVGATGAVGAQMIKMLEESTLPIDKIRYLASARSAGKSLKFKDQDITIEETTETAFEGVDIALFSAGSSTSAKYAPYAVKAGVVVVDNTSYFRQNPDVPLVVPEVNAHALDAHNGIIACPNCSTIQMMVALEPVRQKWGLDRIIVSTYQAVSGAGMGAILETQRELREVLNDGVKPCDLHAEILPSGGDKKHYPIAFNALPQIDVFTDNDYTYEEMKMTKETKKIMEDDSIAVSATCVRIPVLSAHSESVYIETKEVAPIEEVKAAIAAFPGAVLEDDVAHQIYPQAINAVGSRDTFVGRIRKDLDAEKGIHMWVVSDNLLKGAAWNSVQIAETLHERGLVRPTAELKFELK
Description: ASADH enzyme kinetic assay. To be noted: for ligand efficiency: enzyme form not stated; for fold increase in binding affinity: relative to M11, M9: enzyme form not stated, M14: spASADH.

Assay [1] deals with T2, vcASADH (Vibrio cholerae serotype O1, UniProt Q9KQG2).
T2 sequence (Q9KQG2 1-370): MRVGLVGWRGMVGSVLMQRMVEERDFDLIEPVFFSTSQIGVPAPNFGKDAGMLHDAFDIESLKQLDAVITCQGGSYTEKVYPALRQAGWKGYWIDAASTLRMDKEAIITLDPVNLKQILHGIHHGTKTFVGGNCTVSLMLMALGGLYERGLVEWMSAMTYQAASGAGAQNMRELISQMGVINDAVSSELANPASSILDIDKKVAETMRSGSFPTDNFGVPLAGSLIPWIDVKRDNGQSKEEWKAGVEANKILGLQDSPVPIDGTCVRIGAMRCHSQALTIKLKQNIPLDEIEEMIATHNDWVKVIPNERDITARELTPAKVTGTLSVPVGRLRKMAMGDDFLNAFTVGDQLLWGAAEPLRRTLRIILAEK
Description: ASADH enzyme kinetic assay.

Assay [2] has as its target T2, vcASADH. Description: More thorough kinetic analysis, inhibitor varied against substrate ASA. Format: biochemical. The following applies: against the substrate ASA.

On to `O=C(O)c1ccc(C(=O)O)cc1` [1,4-benzenedicarboxylate, reference compound], for which, at spASADH, the “affinity for spASADH (in words)” value is on record as “no affinity”. Moreover, the “affinity for vcASADH (in words)” value at vcASADH [1] is recorded as “no affinity”.

One may read the Ki as a measure of affinity in units of concentration, obtained from inhibition or displacement. In turn, `COC(=O)c1ccc([N+](=O)[O-])cn1` [Compound M6m, 5-Nitropyridine-2-methylcarboxylate] yielded a Ki at vcASADH [1] of more than 20 mM.

In turn, `COC(=O)c1ccc(C(=O)OC)nc1` [Compound M7m, Pyridine-2,5-dimethylcarboxylate] yielded a Ki on vcASADH [1] of more than 20 mM.

In the case of `O=C1NC(=O)c2cc([N+](=O)[O-])c(Cl)cc21` [Compound M9], the inhibition type result against vcASADH [2] was “competitive inhibitors”. Also, on spASADH, the ligand efficiency worked out at 0.35 kcal/mol/heavy atom and the “fold increase in binding affinity” value is approximately 10 fold.

`CCN1C(=O)c2ccc([N+](=O)[O-])cc2C1=O` [Compound M11e, 4-Nitro-N-ethylphthalimide]: the “affinity for spASADH (in words)” value on spASADH is listed as “no affinity”. Also, on vcASADH [1], the Ki is more than 4 mM and the “affinity for vcASADH (in words)” value is “no affinity”.

Turning to `O=c1[nH]c2ccc([N+](=O)[O-])cc2[nH]1` [Compound M14, 5-nitro-2-benzimidazolinone], the “fold increase in binding affinity” value on spASADH is approximately 10 fold.

Turning to `Cn1c(=O)n(C)c2cc([N+](=O)[O-])ccc21` [Compound M14m, 4-Nitro-N,N-dimethylbenzimidazolinone], the inhibition type entry against vcASADH [2] was “competitive inhibitors”. The same compound had a Ki on vcASADH [1] of 0.13 ± 0.02 mM.

In turn, `O=C(O)c1cc(C(=O)O)cc(C(=O)Nc2ccc([N+](=O)[O-])cc2)c1` [Compound M17] showed a ligand efficiency at spASADH of 0.22 kcal/mol/heavy atom.

For `COC(=O)c1cc(C(=O)Nc2ccc([N+](=O)[O-])cc2)cc(C(=O)OC)c1` [Compound M17m, 5-[[(4-Nitrophenyl)amino]carbonyl]-1,3-benzenedimethylcarboxylate], the Ki at vcASADH [1] was more than 20 mM.

The record behind these values is paper PMC3839116 (Bioorganic & medicinal chemistry, 2012).
